2 compounds from patent US20070072883A1, “Fungicidal mixtures” (BASF Aktiengesellschaft, priority 2003, published 2007) can be followed below.

The test system of experiment [1] is Cochliobolus miyabeanus. The experiment in a line: Activity against brown spot of rice caused by Cochliobolus miyabeanus, protective application. It counts as in vivo. The following applies: rice seedlings "Tai-Nong 67", six days after inoculation. Here is the method:
(§1) The active compounds, separately or jointly, were prepared as a stock solution comprising 0.25% by weight of active compound in acetone or DMSO. 1% by weight of the emulsifier Uniperol® EL (wetting agent having emulsifying and dispersant action based on ethoxylated alkylphenols) was added to this solution, and the mixture was diluted with water to the desired concentration.
Use Example 1—Activity Against Brown Spot of Rice Caused by Cochliobolus miyabeanus, Protective Application Leaves of potted rice seedlings of the cultivar “Tai-Nong 67” were sprayed to runoff point with an aqueous suspension of the concentration of active compound stated below. The next day, the plants were inoculated with an aqueous spore suspension of Cochliobolus miyabeanus. The test plants were then placed in climatized chambers at 22-24° C. and 95-99% relative atmospheric humidity for six days. The extent of the development of the infection on the leaves was then determined visually.
Evaluation was carried out by determining the percentage of infected leaf area. These percentages were converted into efficacies.
The efficacy (E) is calculated as follows using Abbot's formula: E=(1−α/β)·100 α corresponds to the fungicidal infection of the treated plants in % and β corresponds to the fungicidal infection of the untreated (control) plants in % An efficacy of 0 means that the infection level of the treated plants corresponds to that of the untreated control plants; an efficacy of 100 means that the treated plants are not infected.
The expected efficacies of mixtures of active compounds are determined using Colby's formula (R. S. Colby, Weeds, 15, 20-22, 1967) and compared with the observed efficacies.
Colby's formula: E=x+y−x·y/100 • E expected efficacy, expressed in % of the untreated control, when using the mixture of the active compounds A and B at the concentrations a and b • x efficacy, expressed in % of the untreated control, when using the active compound A at the concentration a y efficacy, expressed in % of the untreated control, when using the active compound B at the concentration b

The subject of experiment [2] is Corticium sasakii. The experiment in a line: Activity against sheath blight on rice caused by Corticium sasakii. It counts as in vivo. The settings on record: rice plants "Tai-Nong 67", after 11 days. Here is the method: as §1
Use Example 2—Activity Against Sheath Blight on Rice Caused by Corticium sasakii
Pots with rice plants of the cultivar “Tai-Nong 67”, were sprayed to runoff point with an aqueous suspension having the concentration of active compounds stated below. The next day, oat grains infected with Corticium sasakii were placed into the pots (in each case 5 grains per pot). The plants were then placed in a chamber at 26° C. and maximum atmospheric humidity. After 11 days, the sheath blight on the untreated but infected control plants had developed to such an extent that the infection could be determined visually in %.
Evaluation was carried out analogously to Example 1.

Consider `N#Cc1c[nH]cc1-c1cccc2c1OC(F)(F)O2` [II (fludioxonil), 4-(2,2-difluorobenzo[1,3]dioxol-4-yl)-1H-pyrrole-3-carbonitrile], for which the “Efficacy in % of the untreated control” value is recorded as 0% in experiment [1] (1 ppm in the spray liquor), 33% in experiment [1] (4 ppm in the spray liquor), 0% in experiment [2] (1 ppm in the spray liquor) and 6% in experiment [2] (4 ppm in the spray liquor).

With `CC1CCN(c2c(-c3c(F)cc(F)cc3F)c(Cl)nc3ncnn23)CC1` [I, 5-chloro-7-(4-methylpiperidin-1-yl)-6-(2,4,6-trifluorophenyl)-[1,2,4]triazolo[1,5-a]pyrimidine], the results for the “Efficacy in % of the untreated control” value in experiment [1] (4 ppm in the spray liquor) and in experiment [2] (4 ppm in the spray liquor) were 33% and 37%, respectively.
